The text below walks through data of US20250019644A1, “Quantitatively Mapping Amino Acid Properties (QMAP) Cell Culture Media” (UNIVERSITY OF IOWA RESEARCH FOUNDATION, priority 2023, published 2025).

The subject of assay [1] is HCT15 cells. Briefly: Crystal Violet Cell Cytotoxicity Assay. The assay is classed as cell-based. The following applies: Homo sapiens, HCT-15; 2 mM, 48 hours, QMAP, compared to QMAP only; read-out: decrease in cell viability. The protocol:
HCT15 cells were plated in 1:1 DMEM: QMAP media on a clear 96-well plate. After 18 hours, cells were treated with 200 μl of QMAP (CTRL) or QMAP plus an amino acid (2 mM). Cells were then grown for 48 hours, followed by a live/dead assay using the Crystal Violet Cell Cytotoxicity Assay Kit (BioVision, #K329) according to the manufacturer's directions. Briefly, cells were washed with 200 μl of 1× washing solution and incubated in 50 μl of crystal violet staining solution for 20 minutes. Cells were washed four times with 200 μl of 1× washing solution to remove dead cells. Cells were then incubated in 100 μl of solubilization solution for 20 minutes, and absorbance was measured at 595 nm.
An amino acid screen of all 20 essential and non-essential amino acids was performed to assess the differential effects of amino acids on cancer cell proliferation. Because commercially available cell culture media such as DMEM or RPMI contain variable concentrations of amino acids, a chemically defined, custom minimal media was designed containing all amino acids present at 0.3 mM, referred to as QMAP. HCT15 cells, a colon cancer cell line, were plated in 50:50 DMEM: QMAP and left to attach overnight. […] After 48 hours, cell proliferation was measured by crystal violet dye, which binds to ribose-like molecules such as DNA and assumes dead cells become unattached and are washed away.

Assay [2] concerns U2OS. Briefly: CellTiter-Glo Luminescent Cell Viability Assay. The assay is classed as cell-based, human. The following applies: 2 mM, 24 hours, DMEM. How it is done: (§1) HT29, 293T, U2OS, and 3T3-LI cells were plated on an opaque 96-well plate in 1:1 DMEM. […] At the appropriate time point, 100 μl of CellTiter-Glo reagent (Promega #G7570) was added to each well. The plate was gently mixed for 2 minutes to induce lysis, incubated at room-temperature for 10 minutes, and then luminescence was measured.
To test whether tryptophan inhibition of growth applied to other cell lines and persisted in conventional cell culture media, two human cancer cell lines (HT29, U2OS), a transformed human embryonic kidney cell line (293T), and a mouse, fibroblast-like cell line (3T3-L1) were grown in DMEM for 24 hours and then treated with 2 mM tryptophan or vehicle. […]
Background: Cellular ATP, detected with luciferase, serves as a proxy for viable cell number.

The test system of assay [3] is 3T3-L1. Description: CellTiter-Glo Luminescent Cell Viability Assay. The assay is classed as cell-based, mouse. The conditions noted are these: 2 mM, 24 hours, DMEM. The protocol:
as §1
To test whether tryptophan inhibition of growth applied to other cell lines and persisted in conventional cell culture media, two human cancer cell lines (HT29, U2OS), a transformed human embryonic kidney cell line (293T), and a mouse, fibroblast-like cell line (3T3-L1) were grown in DMEM for 24 hours and then treated with 2 mM tryptophan or vehicle. After 24 hours, cells were assayed by CellTiter-Glo, which indicates cell viability by measuring ATP production.

Assay [4] deals with HCT116 cells. Briefly: Metabolic profiling of tryptophan metabolite-treated cells, LC-MS. The assay is classed as cell-based, human. The protocol: […] Cell plates were lyophilized overnight before metabolite extraction. To extract metabolites, 1 ml of an extraction buffer composed of 2:2:1 methanol/acetonitrile/water with internal standards at 1 μg/ml each (D4-Citric Acid, 13C5-Glutamine, 13C5-Glutamic Acid, 13C6-Lysine, 13C5-Methionine, 13C3-Serine, D4-Succinic Acid, 13C11-Tryptophan, and D8-Valine; Cambridge Isotope Laboratories) was added to the lyophilized cell samples. Cells were scraped for 20 seconds and collected into Eppendorf tubes, flash-frozen in liquid nitrogen, and sonicated for 10 minutes.
Samples were then placed on a rotating platform at −20° C. for 1 hour and centrifuged at 4° C. for 10 minutes at 21,000×g. 300 μL of the cleared metabolite extracts were transferred to fresh tubes for additional processing. An equal volume of each extract was pooled to serve as a quality control (QC) sample, which was analyzed at the beginning, end, and at a regular interval throughout an instrument run. Extraction buffer alone was analyzed as a processing blank sample. Metabolite extracts, the quality control sample, and the processing blank were evaporated to dryness using a speed-vacuum.
Dried extracts were reconstituted in 30 μL of acetonitrile/water (1:1, V/V), vortexed for 10 minutes, and incubated at −20° C. for 18 hours. Samples were then centrifuged at 4° C. for 2 minutes at 21,000×g and the supernatant was transferred to autosampler vials for analysis.
For LC chromatographic separation, 2 μL of reconstituted metabolite extracts, QC sample, and processing blank were run on a Millipore SeQuant ZIC-PHILIC (2.1×150 mm, 5 um particle size, Millipore Sigma #150460) column with a ZIC-PHILIC guard column (20×2.1 mm, Millipore Sigma #150437) attached to a Thermo Vanquish Flex UHPLC. The mobile phase comprised Buffer A [20 mM (NH4)2CO3, 0.1% NH4OH (v/v)] and Buffer B [acetonitrile]. The chromatographic gradient was run at a flow rate of 0.150 mL/min as follows: 0-20 min-linear gradient from 80 to 20% Buffer B; 20-20.5 min-linear gradient from 20 to 80% Buffer B; and 20.5-28 min-hold at 80% Buffer B. Data were acquired using a Thermo Q Exactive MS operated in full-scan, polarity-switching mode with a spray voltage set to 3.0 kV, the heated capillary held at 275° C., and the HESI probe held at 350° C. The sheath gas flow was set to 40 units, the auxiliary gas flow was set to 15 units, and the sweep gas flow was set to 1 unit. MS data acquisition was performed with polarity switching in a range of m/z 70-1,000, with the resolution set at 70,000, the AGC target at 10e6, and the maximum injection time at 200 ms. The QC sample was analyzed at the beginning and end of the LC-MS run and after every 10 samples.
Acquired LC-MS and GC-MS data were processed using the Thermo Scientific TraceFinder software. Targeted metabolites were identified by matching accurate mass and retention times to the University of Iowa Metabolomics Core Facility's in-house library of confirmed standards. After peak area integration by TraceFinder, NOREVA software was applied for signal drift correction on a metabolite-to-metabolite basis using the pooled QC sample that had been analyzed throughout the instrument run. Within individual samples, Post-NOREVA metabolite levels were divided by the total metabolite load (sum of all metabolite values) to equally weight individual metabolites for comparison across samples.

As to `N[C@@H](Cc1c[nH]c2ccccc12)C(=O)O` [tryptophan, L-tryptophan], the cytotoxicity at 2000 µM in assay [1] was ~50%. Besides, the “cell viability compared to vehicle” value in assay [2] and in assay [3] was “significant decreases” in each case. Besides, in assay [4] (IFN-γ (50 ng/μL) for 24 hours, then tryptophan 1 mM for 6 hours, QMAP), the xanthommatin level entry was “only tryptophan metabolite to significantly increase”. For the same compound, in assay [4] (tryptophan supplementation), the 3HK level entry is recorded as “not detectable”.
